Experiments:
MCF7 (breast carcinoma) = experiment: Antiproliferative activity in vitro, SRB assay; format: cell-based, human; details: Homo sapiens, MCF7; 72 h exposure, SRB; read-out: IC50 ± SD MCF7
MCF 10A (breast cells) = experiment: Antiproliferative activity in vitro, SRB assay; format: cell-based, human; details: Homo sapiens, MCF-10A; 72 h exposure, SRB; normal cell line; read-out: IC50 ± SD MCF 10A
HLMEC cultures = experiment: Stability of flavonoids in the cell cultures, HPLC; format: in vitro ADME, human; details: 100 μg/mL, 3 h of incubation
Protocol: (§1) Flavonoids dissolved (as described in Section 2.4) were added to the HLMEC and MCF7 line cultures, and the final concentration was 100 μg/mL. The cultures were incubated in 96-well plates for 3 h and transferred to microtubes containing 400 µL of cold methanol (−20 °C) and kept at −20 °C for 1 h. After centrifugation at 12,000× g for 10 min, samples were analyzed by HPLC. To determine the stability of flavonoids in HLMEC and MCF7 culture media (not containing cells) under analogous conditions, control experiments were also carried out.

MCF7 cultures = experiment: Stability of flavonoids in the cell cultures, HPLC; format: in vitro ADME, human; details: 100 μg/mL, 3 h of incubation
Protocol: as §1

DU 145 (prostate cancer) = experiment: Antiproliferative activity in vitro, SRB assay; format: cell-based, human; details: Homo sapiens, DU-145; 72 h exposure, SRB; read-out: IC50 ± SD DU 145
[1] = Stability of flavonoids in culture media without cells (control), HPLC; format: physicochemical; details: HLMEC and MCF7 culture media not containing cells, 3 h
Protocol: as §1

IC50 (MCF7 (breast carcinoma)) [µM] | compound remaining after incubation in HLMEC cultures (HLMEC cultures) | compound remaining after incubation in MCF7 cultures (MCF7 cultures) | IC50 (DU 145 (prostate cancer)) [µM] | compound remaining in culture media without cells [1] | SMILES | IC50 (MCF 10A (breast cells)) [µM]
215 ± 32.3 | over 98% | over 98% | 242 ± 15.6 | over 98% | O=C1C[C@@H](c2ccc(O)cc2)Oc2cc(O)cc(O)c21 [Compound 6, naringenin] | 185 ± 23.2
22.5 ± 1.29 | over 98% | over 98% | 28.9 ± 8.4 | over 98% | O=c1cc(-c2ccc(O)cc2)oc2cc(O)cc(O)c12 [Compound 2, apigenin] | 35.7 ± 11.9
